Where two headings read alike, the source gives them in different places. One block for each molecule: values may come before it.
How the values were obtained:
[1] = system: Diabrotica balteata (Corn Root Worm); experiment: Example B1: Activity against Diabrotica balteata (corn root worm), sprayed maize sprouts; type: in vivo; details: 96 h, application rate 200 ppm, L2 larvae on sprayed maize sprouts, 4 days after infestation, read-out: effect in at least one of the two categories (mortality or growth inhibition)
Experimental: Example B1: Activity Against Diabrotica balteata (Corn Root Worm)
Maize sprouts placed onto an agar layer in 24-well microtiter plates were treated with aqueous test solutions prepared from 10′000 ppm DMSO stock solutions by spraying. After drying, the plates were infested with L2 larvae (6 to 10 per well). The samples were assessed for mortality and growth inhibition in comparison to untreated samples 4 days after infestation.

[2] = system: Euschistus heros (Neotropical Brown Stink Bug); experiment: Example B2: Activity against Euschistus heros (neotropical brown stink bug), sprayed soybean leaves; type: in vivo; details: 120 h, application rate 200 ppm, N2 nymphs on sprayed soybean leaves, 5 days after infestation, read-out: effect in at least one of the two categories (mortality or growth inhibition)
Experimental: Example B2: Activity Against Euschistus heros (Neotropical Brown Stink Bug)
Soybean leaves on agar in 24-well microtiter plates were sprayed with aqueous test solutions prepared from 10′000 ppm DMSO stock solutions. After drying the leaves were infested with N2 nymphs. The samples were assessed for mortality and growth inhibition in comparison to untreated samples 5 days after infestation.

[3] = system: Plutella xylostella (Diamond Back Moth); experiment: Example B3: Activity against Plutella xylostella (diamond back moth), artificial diet; type: in vivo; details: 192 h, application rate 200 ppm, eggs on artificial diet, 8 days after infestation, read-out: effect in at least one of the two categories (mortality or growth inhibition)
[4] = system: Myzus persicae (Green Peach Aphid); experiment: whole plant or invertebrate; type: in vivo; details: foliar, 144 h, application rate 200 ppm, sprayed sunflower leaf discs, mixed ages, 6 days after infestation
Experimental: Example B4: Activity Against Myzus persicae (Green Peach Aphid) Feeding/Contact Activity
Sunflower leaf discs were placed onto agar in a 24-well microtiter plate and sprayed with aqueous test solutions prepared from 10′000 ppm DMSO stock solutions. After drying, the leaf discs were infested with an aphid population of mixed ages. The samples were assessed for mortality 6 days after infestation.

[5] = system: Spodoptera littoralis (Egyptian Cotton Leaf Worm); experiment: Example B6: Activity against Spodoptera littoralis (Egyptian cotton leaf worm); type: in vivo; details: foliar, 72 h, application rate 200 ppm, L1 larvae on sprayed cotton leaf discs, 3 days after infestation, read-out: control (mortality, anti-feeding effect or growth inhibition)
How it was run: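 Cotton leaf discs on agar were sprayed with aqueous test solutions prepared from 10'000 ppm DMSO stocks. After drying, each disc was infested with five L1 larvae. Mortality, anti-feeding and growth inhibition were scored against untreated samples 3 days after infestation.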

[6] = system: Frankliniella occidentalis (Western Flower Thrips); experiment: Example B8: Activity against Frankliniella occidentalis (western flower thrips); type: in vivo; details: foliar, 168 h, application rate 200 ppm, sprayed sunflower leaf discs, mixed ages, 7 days after infestation
Experimental: Example B8: Activity Against Frankliniella occidentalis (Western Flower Thrips)
Sunflower leaf discs were placed on agar in 24-well microtiter plates and sprayed with aqueous test solutions prepared from […] stock solutions. After drying the leaf discs were infested with a Frankliniella population of mixed ages. The samples were assessed for mortality 7 days after infestation.

[7] = system: Tetranychus urticae (Two-Spotted Spider Mite); experiment: Example B9: Activity against Tetranychus urticae (two-spotted spider mite); type: in vivo; details: foliar, 192 h, read-out: mortality on mixed population (mobile stages)
Experimental: Example B9: Activity Against Tetranychus urticae (Two-Spotted Spider Mite)
Bean leaf discs on agar in 24-well microtiter plates were sprayed with aqueous test solutions prepared from 10′000 ppm DMSO stock solutions. After drying the leaf discs were infested with a mite population of mixed ages. The samples were assessed for mortality on mixed population (mobile stages) 8 days after infestation.

Structure (SMILES): CCS(=O)(=O)c1ccc(C2CC2)nc1-c1cc2cnn(CC(F)(F)C(F)(F)F)c2cn1 [Compound P26, 5-(6-cyclopropyl-3-ethylsulfonyl-2-pyridyl)-1-(2,2,3,3,3,- pentafluoropropyl) pyrazolo[3,4-c]pyridine]
- percent effect (mortality or growth inhibition) at 200 ppm [1]: ≥ 80%
- percent effect (mortality or growth inhibition) at 200 ppm [2]: ≥ 80%
- percent effect (mortality or growth inhibition) at 200 ppm [3]: ≥ 80%
- mortality at 200 ppm [4]: ≥ 80%
- percent control (mortality, anti-feedant effect or growth inhibition) at 200 ppm [5]: ≥ 80%
- mortality at 200 ppm [6]: ≥ 80%
- mortality at 200 ppm [7]: ≥ 80%

- melting point: 185 to 188 °C
Structure (SMILES): CCSc1ccc(Cl)nc1-c1cc2ccn(CC(F)(F)C(F)(F)F)c2cn1 [Compound P48, 5-(6-chloro-3-ethylsulfanyl-2-pyridyl)-1-(2,2,3,3,3-pentafluoropropyl) pyrrolo[2,3-c]pyridine]

- melting point: 181 to 185 °C
Structure (SMILES): CCSc1ccc[n+]([O-])c1-c1cc2ccn(CC(F)(F)C(F)(F)F)c2cn1 [PN2, 5-(3-ethylsulfanyl-1-oxido-pyridin-1-ium-2-yl)-1-(2,2,3,3,3-pentafluoropropyl) pyrrolo[2,3-c]pyridine]

Structure (SMILES): CCSc1cc(C(C)(C)C#N)c[n+]([O-])c1-c1cc2ccn(CC(F)(F)C(F)(F)F)c2cn1 [PN6, 2-[5-ethylsulfanyl-1-oxido-6-[1-(2,2,3,3,3-pentafluoropropyl)pyrrolo[2,3-c]pyridin-5-yl]pyridin-1-ium-3-yl]-2-methyl-propanenitrile]
- mortality at 200 ppm ([7]; application rate 200 ppm, sprayed bean leaf discs, 8 days after infestation): ≥ 80%
